Assay type in all cases: in vivo, rat
One experiment concerns P2X3 mRNA. The experiment can be described thus: In situ hybridization of P2X3 mRNA in dorsal root ganglion of burn rats. To be noted: n=10. The protocol:
SD rats (their body weights were 200±20 g) were randomly divided into the group I (sham back burn), the group II (Puerarin, intraperitoneal injection), the group III (superficial second degree back burn), the group IV (superficial second degree back burn+puerarin), the group V (control) and the group VI (superficial second degree back burn+Indocin). The rats in the group IV (superficial second degree back burn+puerarin) were subjected to intraperitoneal injection of Puerarin (100 mg/kg) everyday for continuous three days 30 minutes before and after burn. The rats in the group VI (superficial second degree back burn+Indocin) were subjected to intraperitoneal injection of idomethine (4 mg/kg/d) everyday for continuous three days 30 minutes before burn and after burn. Results of in situ hybridization were subjected to analysis by using Hmias-2000 high-resolution color medical image analysis system for the detection of P2X3 receptor expression in dorsal root ganglion (DRG) in burn position of rats.

Experiment [1] deals with rats that suffer from superficial second degree foot burn. In words: Thermal hyperalgesia (thermal withdrawal latency) in rats with foot burn. The following applies: for thermal withdrawal latency (TWL) in comparison to group III (burn) / thermal withdrawal latency (TWL) after 144 hours: superficial second degree foot burn + drug; for thermal withdrawal latency (TWL) in comparison to group III (burn): 24 hours after burn, p<0.01. The text has this: Male SD rats, 220-250 g, 60 rats were included, which were provided by the Department of Experimental Animals from the Medical College of Nanchang University, and the animals were divided into different groups at random. Group I was the group of sham burn in skin of feet; group II was the group of puerarin injection+first degree or superficial second degree burn in skin of feet; group III was the group of physiological saline+first degree or superficial second degree burn in skin of feet; group IV was the group of sham burn in skin of back; group V was the group of puerarin injection+first degree or superficial second degree burn in skin of back; group VI was the group of physiological saline+first degree or superficial second degree burn in skin of back. Puerarin injection was dissolved in physiological saline and the concentration was 50 mg/mL. vena caudalis injection of 4 mL/kg physiological saline was carried out for the rats in group III and […] 0.5 h before burn, and the injection was carried out once a day until the termination of the test; […], and the injection was carried out once a day until the termination of the test; skin of feet or back of the rats from group I and group IV (the sham burn group) were immersed in warm water of 37° C. for 8 seconds.
After the rats were anesthetized by ether, their right posterior feet were immersed in hot water of 70° C. for 5 seconds or 8 seconds, then they were raised in separate cages after burn. The mechanical withdrawal threshold and the thermal withdrawal threshold in their right posterior feet were measured respectively before burn (Oh) and 1, 24, 48, 72, 96, 120, 144 hours after burn (the room temperature was maintained at 22±0.5° C.).
The organic glass box was placed on a glass plate of 3 mm thick and BME-410C type automatic thermalgia stimulator was used to irradiate the footplates of rats. The time for the appearance of leg withdrawal after the irradiation on footplates of rats by using the thermal radiation stimulator was considered as the thermal withdrawal latency (TWL). The time for cutting off was 25 seconds in order to prevent burn on tissues.
The organic glass box was placed on a glass plate of 3 mm thick and BME-410C type automatic thermalgia stimulator (Institute of Biomedical Engineering, Chinese Academy of Medical Sciences) was used to irrdiate the footplates of rats. The time for the appearance of leg withdrawal after the irradiation on footplates of rats by using the thermal radiation stimulator was considered as the thermal withdrawal latency. The time for cutting off was 30 seconds in order to prevent burn on tissues.

A further experiment has as its system P2X3 protein. The experiment can be described thus: P2X3 protein expression in dorsal root ganglion of burn rats (band density normalized to β-actin). To be noted: n=3. The protocol: SD rats (their body weights were between 200±20 g) were randomly divided into the group I (sham back burn), the group II (Puerarin, intraperitoneal injection), the group III (superficial second degree back burn), the group IV (superficial second degree back burn+puerarin), the group V (control) and the group VI (superficial second degree back burn+Indocin). The rats in the group IV (superficial second degree back burn+puerarin) were subjected to intraperitoneal injection of puerarin (100 mg/kg) everyday for continuous three days 30 minutes before burn and after burn. The rats in the group VI (superficial second degree back burn+Indocin) were subjected to intraperitoneal injection of idomethine (4 mg/kg/d) everyday for continuous three days 30 minutes before burn and after burn. Results: the optical density scanned values for the interested bands that were detected on X-ray film were read by using Alpha Imager 2200 image analysis software, and the scanned values of β-actin for different groups were used to normalize the expression level of P2X3 in corresponding groups.

[2] abbreviates: superficial second degree back burn + drug (puerarin 100 mg/kg i.p., idomethine 4 mg/kg/d i.p., three days), burn 1.15±0.04, control 0.99±0.02.
The mark [3] stands for this setting: superficial second degree back burn + drug (puerarin 100 mg/kg i.p., idomethine 4 mg/kg/d i.p., three days), burn 1.23±0.06, control 0.98±0.02.

On to `COc1ccc2c(c1)c(CC(=O)O)c(C)n2C(=O)c1ccc(Cl)cc1` [Indocin, Indometacin], for which the “average optical density (P2X3 mRNA, in situ hybridization, DRG)” value in the experiment on P2X3 mRNA (setting [2]) worked out at 1.06±0.05. Also, the “thermal withdrawal latency (TWL) in comparison to group III (burn)” value in experiment [1] is “significantly increased”. For the same compound, the “thermal withdrawal latency (TWL) after 144 hours” value in experiment [1] (p>0.05) is given as “almost recovered to normal level”. Further, the “protein expression level of P2X3 (after normalization with corresponding β-actin)” value in the experiment on P2X3 protein (setting [3]) worked out at 1.14±0.03.
For `O=c1c(-c2ccc(O)cc2)coc2c([C@@H]3O[C@H](CO)[C@@H](O)[C@H](O)[C@H]3O)c(O)ccc12` [puerarin], the “average optical density (P2X3 mRNA, in situ hybridization, DRG)” value was determined as 0.97±0.01 in the experiment on P2X3 mRNA (puerarin alone i.p., no burn) and 1.01±0.03 with P2X3 mRNA (setting [2]). For the same compound, in experiment [1] (puerarin alone i.p., no burn, p>0.05), the “thermal withdrawal latency, comparison among sham, puerarin alone and control” value was “no significant difference”. In addition, the “thermal withdrawal latency (TWL) in comparison to group III (burn)” value in experiment [1] was “significantly increased”. In experiment [1] (p>0.05), the “thermal withdrawal latency (TWL) after 144 hours” value is listed as “almost recovered to normal level”. The “protein expression level of P2X3 (after normalization with corresponding β-actin)” value in the experiment on P2X3 protein (puerarin alone i.p., no burn) is listed as 0.97±0.02; in the experiment with P2X3 protein (setting [3]), 0.93±0.02.

Values taken from patent US8362070B2, “Application of puerarin in the preparation of P2X3 mediated drugs for pain/nervous system diseases” (Nanchang University, priority 2009, dated 2013).
